Molecular target: T1, Human M4 (Homo sapiens, UniProt P08173)
T1 construct: Human or rat M4 cDNA, along with the chimeric G protein Gqi5, were transfected into Chinese hamster ovary (CHO-K1) cells; expressed in transfected cells; host or cells: CHO-K1 (Chinese hamster ovary, ATCC), stably co-expressing Gqi5
T1 sequence (P08173 1-479): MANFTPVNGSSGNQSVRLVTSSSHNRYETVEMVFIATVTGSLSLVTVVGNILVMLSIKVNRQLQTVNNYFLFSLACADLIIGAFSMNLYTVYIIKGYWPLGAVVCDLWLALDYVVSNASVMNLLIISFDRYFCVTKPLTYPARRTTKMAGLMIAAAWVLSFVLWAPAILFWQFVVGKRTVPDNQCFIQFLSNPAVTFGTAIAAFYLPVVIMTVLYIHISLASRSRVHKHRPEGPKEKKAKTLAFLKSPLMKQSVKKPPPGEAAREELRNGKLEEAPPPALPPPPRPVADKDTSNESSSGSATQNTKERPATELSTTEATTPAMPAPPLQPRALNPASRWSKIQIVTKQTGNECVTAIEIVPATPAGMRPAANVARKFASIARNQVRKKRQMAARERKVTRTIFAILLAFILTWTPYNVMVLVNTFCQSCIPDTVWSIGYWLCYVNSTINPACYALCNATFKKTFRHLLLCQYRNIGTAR
Assay: mAChR M4 cell-based functional assay (calcium flux, decrease of EC80 acetylcholine response)
Settings: for remaining activity at 30 µM: % ACh maximum at 30 μM, read-out: Human M4 Emin; for IC50: M4/Gqi5/CHO-K1 cells, decrease of response to EC80 acetylcholine
Method in brief: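 CHO-K1 cells stably co-expressing M4 and chimeric Gqi5, loaded with Fluo-4 AM; calcium flux read on FDSS. Compound added at 2 s, EC20 acetylcholine at 143 s, EC80 acetylcholine at 268 s. IC50 from concentration-dependent decrease of the EC80 response, four-parameter logistic fit; 10-point 1:3 titrations.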

remaining activity at 30 µM	IC50	SMILES
4%	232 nM	N#Cc1cccc(-c2cc(C(F)(F)F)c(N[C@H]3C[C@@H]4CN(CC5CCOCC5)C[C@@H]4C3)nn2)c1F [Example 60, 2-fluoro-3-(6-(((3aR,5s,6aS)-2-((tetrahydro-2H-pyran-4-yl)methyl)octahydro-cyclopenta[c]pyrrol-5-yl)amino)-5-(trifluoro-methyl)pyridazin-3-yl)benzonitrile]
3%	408 nM	Fc1cc(OC(F)F)ccc1-c1cc(C(F)(F)F)c(N[C@H]2C[C@@H]3CN(CC4CCOCC4)C[C@@H]3C2)nn1 [Example 83, (3aR,5s,6aS)-N-(6-(2-fluoro-4-(difluoromethoxy)phenyl)-4-(trifluoromethyl)pyridazin-3-yl)-2-((tetrahydro-2H-pyran-4-yl)methyl)octahydro-cyclopenta[c]pyrrol-5-amine]
3%	38.9 nM	Cc1cc(F)ccc1-c1cc(C(F)(F)F)c(N[C@H]2C[C@@H]3CN(CC4CCOCC4)C[C@@H]3C2)nn1 [Example 74, (3aR,5s,6aS)-N-(6-(4-fluoro-2-methylphenyl)-4-(trifluoromethyl)pyridazin-3-yl)-2-((tetrahydro-2H-pyran-4-yl)methyl)octahydro-cyclopenta[c]pyrrol-5-amine]
3%	54 nM	COc1ccccc1-c1cc(C(F)(F)F)c(N[C@H]2C[C@@H]3CN(CC4CCOCC4)C[C@@H]3C2)nn1 [Example 64, (3aR,5s,6aS)-N-(6-(2-methoxyphenyl)-4-(trifluoromethyl)pyridazin-3-yl)-2-((tetrahydro-2H-pyran-4-yl)methyl)octahydro-cyclopenta[c]pyrrol-5-amine]
4%	634 nM	Fc1ccc(C(F)(F)F)cc1-c1cc(C(F)(F)F)c(N[C@H]2C[C@@H]3CN(CC4CCOCC4)C[C@@H]3C2)nn1 [Example 89, (3aR,5s,6aS)-N-(6-(2-fluoro-5-(trifluoromethyl)phenyl)-4-(trifluoromethyl)pyridazin-3-yl)-2-((tetrahydro-2H-pyran-4-yl)methyl)octahydro-cyclopenta[c]pyrrol-5-amine]
5%	130 nM	Cc1ccc(F)cc1-c1cc(C(F)(F)F)c(N[C@H]2C[C@@H]3CN(C[C@H]4CCOC4)C[C@@H]3C2)nn1 [Example 31, (3aR,5s,6aS)-N-(6-(5-fluoro-2-methylphenyl)-4-(trifluoromethyl)pyridazin-3-yl)-2-(((R)-tetrahydrofuran-3-yl)methyl)octahydro-cyclopenta[c]pyrrol-5-amine]
3%	13.6 nM	FC(F)(F)c1ccccc1-c1cc(C(F)(F)F)c(N[C@H]2C[C@@H]3CN(CC4CCOCC4)C[C@@H]3C2)nn1 [Example 41, (3aR,5s,6aS)-2-((tetrahydro-2H-pyran-4-yl)methyl)-N-(4-(trifluoromethyl)-6-(2-(trifluoromethyl)phenyl)pyridazin-3-yl)octahydro-cyclopenta[c]pyrrol-5-amine]
3%	280 nM	CCOc1cc(F)c(-c2cc(C(F)(F)F)c(N[C@H]3C[C@@H]4CN(CC5CCOCC5)C[C@@H]4C3)nn2)cc1F [Example 91, (3aR,5s,6aS)-N-(6-(4-ethoxy-2,5-difluorophenyl)-4-(trifluoromethyl)pyridazin-3-yl)-2-((tetrahydro-2H-pyran-4-yl)methyl)octahydro-cyclopenta[c]pyrrol-5-amine]
3%	10.3 nM	Cc1ccc(F)cc1-c1cc(C(F)(F)F)c(N[C@H]2C[C@@H]3CN(CC4CCCOC4)C[C@@H]3C2)nn1 (single isomer, unassigned) [Example 120]
3%	94.3 nM	COc1ccc(F)cc1-c1cc(C(F)(F)F)c(N[C@H]2C[C@@H]3CN(CC4CCOCC4)C[C@@H]3C2)nn1 [Example 49, (3aR,5s,6aS)-N-(6-(5-fluoro-2-methoxyphenyl)-4-(trifluoromethyl)pyridazin-3-yl)-2-((tetrahydro-2H-pyran-4-yl)methyl)octahydro-cyclopenta[c]pyrrol-5-amine]
3%	1330 nM	Fc1ccc(C2CC2)cc1-c1cc(C(F)(F)F)c(N[C@H]2C[C@@H]3CN(CC4CCOCC4)C[C@@H]3C2)nn1 [Example 94, (3aR,5s,6aS)-N-(6-(5-cyclopropyl-2-fluorophenyl)-4-(trifluoromethyl)pyridazin-3-yl)-2-((tetrahydro-2H-pyran-4-yl)methyl)octahydro-cyclopenta[c]pyrrol-5-amine]

Continued, molecule first:

SMILES	remaining activity at 30 µM	IC50
[2H]C([2H])([C@@H]1CCOC1)N1C[C@H]2C[C@H](Nc3nnc(-c4cc(C)ccc4C)cc3C(F)(F)F)C[C@H]2C1 [Example 115, (3aR,5s,6aS)-N-(6-(2,5-dimethylphenyl)-4-(trifluoro-methyl)pyridazin-3-yl)-2-(((S)-tetrahydrofuran-3-yl)methyl-d2)octahydro-cyclopenta[c]pyrrol-5-amine]	3%	176 nM
Fc1ccc(F)c(-c2cc(C(F)(F)F)c(N[C@H]3C[C@@H]4CN(Cc5ccccn5)C[C@@H]4C3)nn2)c1 [Example 48, (3aR,5s,6aS)-N-(6-(2,5-difluorophenyl)-4-(trifluoromethyl)pyridazin-3-yl)-2-(pyridin-2-ylmethyl)octahydro-cyclopenta[c]pyrrol-5-amine]	3%	615 nM
Cn1cc2cc(-c3cnc(N[C@H]4C[C@@H]5CN(Cc6ccc7c(c6)OCO7)C[C@@H]5C4)nc3)ccc2n1 [Example 13, (3aR,5s,6aS)-2-(benzo[d][1,3]dioxol-5-ylmethyl)-N-(5-(2-methyl-2H-indazol-5-yl)pyrimidin-2-yl)octahydro-cyclopenta[c]pyrrol-5-amine]	10%	5290 nM
[2H]C([2H])(C1CCOCC1)N1C[C@H]2C[C@H](Nc3nnc(-c4cc(F)c(F)cc4F)cc3C(F)(F)F)C[C@H]2C1 [Example 125, (3aR,5s,6aS)-2-((tetrahydro-2H-pyran-4-yl)methyl-d2)-N-(4-(trifluoromethyl)-6-(2,4,5-trifluorophenyl)pyridazin-3-yl)octahydro-cyclopenta[c]pyrrol-5-amine]	4%	342 nM
Cn1cc2cc(-c3cc(C#N)c(N[C@H]4C[C@@H]5CN(CC6(C#N)CC6)C[C@@H]5C4)nn3)ccc2n1 [Example 160, 3-(((3aR,5s,6aS)-2-((1-cyano-cyclopropyl)methyl)octahydro-cyclopenta[c]pyrrol-5-yl)amino)-6-(2-methyl-2H-indazol-5-yl)pyridazine-4-carbonitrile]	6%	688 nM
Cc1ccc(F)cc1-c1cc(C(F)(F)F)c(N[C@H]2C[C@@H]3CN(C[C@H]4COCCO4)C[C@@H]3C2)nn1 [Example 22, (3aR,5s,6aS)-2-(((S)-1,4-dioxan-2-yl)methyl)-N-(6-(5-fluoro-2-methylphenyl)-4-(trifluoromethyl)pyridazin-3-yl)octahydro-cyclopenta[c]pyrrol-5-amine]	3%	2.7 nM
FC(F)(F)c1cc(-c2ccccc2)nnc1N[C@H]1C[C@@H]2CN(Cc3ccccn3)C[C@@H]2C1 [Example 102, (3aR,5s,6aS)-N-(6-phenyl-4-(trifluoro-methyl)pyridazin-3-yl)-2-(pyridin-2-ylmethyl)octahydro-cyclopenta[c]pyrrol-5-amine]	4%	350 nM
Cn1cc2cc(-c3cc(C(F)(F)F)c(N[C@H]4C[C@@H]5CN(C[C@@H]6CC7CCC6O7)C[C@@H]5C4)nn3)ccc2n1 (stereo partly drawn) [Example 26, (3aR,5s,6aS)-2-(((2S)-7-oxabicyclo[2.2.1]heptan-2-yl)methyl)-N-(6-(2-methyl-2H-indazol-5-yl)-4-(trifluoromethyl)pyridazin-3-yl)octahydro-cyclopenta[c]pyrrol-5-amine]	4%	19.4 nM
FC(F)(F)c1cc(N2CCCC2)nnc1N[C@H]1C[C@@H]2CN(CC3CCOCC3)C[C@@H]2C1 [Example 142, (3aR,5s,6aS)-N-(6-(pyrrolidin-1-yl)-4-(trifluoro-methyl)pyridazin-3-yl)-2-((tetrahydro-2H-pyran-4-yl)methyl)octahydro-cyclopenta[c]pyrrol-5-amine]	2%	3 nM
Cn1cc2cc(-c3cc(C(F)(F)F)c(N[C@H]4C[C@@H]5CN(C[C@H]6CC7CCC6O7)C[C@@H]5C4)nn3)ccc2n1 (stereo partly drawn) [Example 27, (3aR,5s,6aS)-2-(((2R)-7-oxabicyclo[2.2.1]heptan-2-yl)methyl)-N-(6-(2-methyl-2H-indazol-5-yl)-4-(trifluoromethyl)pyridazin-3-yl)octahydro-cyclopenta[c]pyrrol-5-amine]	3%	74.3 nM
Cc1ccc(F)cc1-c1cc(C(F)(F)F)c(N[C@H]2C[C@@H]3CN(CC4CCCCO4)C[C@@H]3C2)nn1 (single isomer, unassigned) [Example 118]	3%	12.5 nM
